Measurements published in patent US8709506B2, “Synergistic compositions for the treatment of topical viral infections” (Vitro Bio Sarl, priority 2010, dated 2014).

Columns and labels:
herpes virus = format: cell-based; conditions: for % cell death after 72 h TCID50 herpes virus infection: protease 0.5 μg/ml, Vero cells, serum free medium, virus control 56.0 ± 2.3
influenza virus = format: cell-based; conditions: for % cell death after 72 h TCID50 influenza virus infection: protease 0.5 μg/ml, MDCK cells, serum free medium, virus control 48.21 ± 6.77

Row | Substance | % increase in herpes virus growth compared to controls (herpes virus) | % cell death after 72 h TCID50 herpes virus infection (herpes virus) [%] | % increase in influenza viral growth compared to virus control (influenza virus) | % cell death after 72 h TCID50 influenza virus infection (influenza virus) [%]
1 | MMP-10: purified human MMP-10 (stromelysin 2), AnaSpec | +25.82% | 70.46 ± 5.41 | +8.26% | 52.19 ± 7.56
2 | MMP-3: purified human MMP 3 (stromelysin-1), AnaSpec | +7.57% | 64.16 ± 4.29 | −8.49% | 
3 | MMP-1: purified human MMP 1 (interstitial and fibroblast collagenase), AnaSpec | +8.43% | 66.32 ± 7.11 | +63.87% | 47.76 ± 7.26
4 | MMP-7: purified human MMP7 (proenzyme), AnaSpec | +1.96% | 57.10 ± 6.68 | +50.92% | 72.76 ± 5.96
